This note sets out measurements from patent US7700765B2, “DNA minor groove binding compounds” (University of Strathclyde, priority 2001, dated 2010).

In test [1] the test system is double-stranded DNA decamer CGACTAGTCG (SEQ ID NO:3). Put plainly: Capillary electrophoresis ligand-DNA binding study. Particulars: drug to DNA ratio up to 4:1. From the text:
(§1) Typically, ligand binding results in a change in migration time of the DNA and sometimes a change in peak shape.
(§2) The following are shown in FIGS. 1-6: • (a) the experimental conditions, including the DNA sequence(s); • (b) the result of sequential addition of ligand; and • (c) the structure of the ligand being investigated. Key to FIGS. 1 to 6: • r0=electropherogram in the absence of drug • rX=(where X is 0.5, 1, 2, 3 or 4) electropherogram in the presence of drug, where the drug:DNA ratio (in terms of concentration) is X:1
(§3) This ratio corresponds to the binding ratio.

For test [2], the system named is mixture of double-stranded DNA oligonucleotides AAATTATATTAT (SEQ ID NO:1) and GGACTAGTCG (SEQ ID NO:4). Put plainly: Capillary electrophoresis competitive binding study. Particulars: AAATTATATTAT dodecamer versus GGACTAGTCG decamer.
Description: (§4) Capillary electrophoresis was used to study of ligand-DNA binding (see: (i) Hamdan, I. I.; Skellern, G. G.; and Waigh, R. D. “Separation of pd(GC)12 from pd(AT)12 by free solution capillary electrophoresis”, J. Cromatogr. A. 806, 165-168 (1998); (ii) Hamdan, I. I.; Skellern, G. G.; and Waigh, R. D. “Use of capillary electrophoresis in the study of ligand-DNA interactions”, Nucleic Acids Research 26, 3053-3058 (1998); (iii) Hamdan, I. I.; Skellern, G. G.; and Waigh, R. D. “Ligand binding to oligonucleotides” Methods in Molecular Biology, Vol. 163, “Capillary Electrophoresis of Nucleic acids”, Vol 2, pages 379-391, K. R. Mitchelson and J. Cheng Eds., Humana Press, New Jersey, (2000)).
as §1, §2
This ratio corresponds to the binding ratio. […]

Test [3] deals with double-stranded DNA oligonucleotide CCACTAGTGG (SEQ ID NO:5). Put plainly: Capillary electrophoresis ligand-DNA binding study. Particulars: with CCACTAGTGG (SEQ ID NO:5).
Description: as §4, §1, §2, §3

The subject of test [4] is MS1 sequence (radio-labelled DNA, SEQ ID NO:6). Kind of test: DNA footprinting (DNase I). In kind it is binding. Conditions: concentration of 0.03 μM. The protocol: DNA footprinting is a well-established technique in which a section of radio-labelled DNA (SEQ ID NO:6) is incubated with a chemical or biological cleaving agent, in the presence and absence of a putative binding ligand. Regions of ligand binding will show as blanks in the ‘ladder’. Knowing the DNA sequence, the binding sites can then be deduced, from the location of these blanks. The sequence shown in FIGS. 7 and 8 is MS1, which contains all possible four-base-pair binding sites. The procedure used in the footprinting experiments was analogous to that described in J. Med. Chem. 43, 3257 (2000), the disclosures of which document are hereby incorporated by reference. In an analogous manner to the procedure described in J. Med. Chem. 43, 3257 (2000), the MS1 sequence was labelled at the 3′-end with [α-^32P]dATP using reverse transcriptase. The agent used to cleave the radio-labelled DNA was DNase I. Bases that fall within the “footprint” of a compound are indicated by XX . . . XX underneath the sequence. The binding domain that has been confirmed by capillary electrophoresis is indicated by XX. XX.

The test system of test [5] is NFκB protein-DNA complexes. Kind of test: NFκB DNA-binding assay (gel shift) with macrophage nuclear extracts. In kind it is biochemical, Murine. Conditions: 1 μL of a 1 mM solution, final volume 10 μL; nuclear protein from macrophages exposed to LPS. The protocol: Murine macrophages (obtained and cultured as described in Cell. Signal. 11(7), 491 (1999), hereinafter referred to as “Reference 1”, the disclosures of which document are hereby incorporated by reference) were exposed to vehicle (see Reference 1) or 1 μg/mL lipopolysaccharide (LPS; the active component of gram-negative endotoxin and a strong activator of the Nuclear Factor kappa B (NFκB) pathway; the particular LPS being obtained from Salmonella minnesota) for 1 hour and nuclear extracts prepared by standard procedures (see Brit. J. Pharmacol. 134, 393 (2001), hereinafter referred to as “Reference 2”, the disclosures of which document are hereby incorporated by reference).
Aliquots of compounds (1 μL of a 1 mM solution) were incubated with 1 μL (0.035 pmol) of a ^32P-labelled 20 bp double-stranded DNA oligonucleotide (representing the consensus binding sequence for NFκB proteins (see Reference 2 and Brit. J. Pharmacol. 134, 1629-1638 (2001), the disclosures of which latter document are hereby incorporated by reference)) for 30 min at room temperature. […] The formation of NFκB protein-DNA complexes and potential inhibition of complex formation in the presence of the above compounds was detected by autoradiography. […]
(In general: Mobility shift assays separate free from complexed probe on a gel.)

As for “N-[3-(Dimethylamino)propyl]-2-({[4-({[4-(formylamino)-1-methyl-1H-pyrrol-2-yl]carbonyl}amino)-1-methyl-1H-pyrrol-2-yl]carbonyl}amino)-5-isopropyl-1,3-thiazole-4-carboxamide [Example 3]”, the “affinity for the sequence” value in test [1] is given as “strong affinity”. For the same substance, in test [2], the “relative affinity in competitive binding” value is reported as “greater affinity for the decamer ACTA sequence”. Also, the binding result in test [3] was “identical with that achieved with the sequence in FIG. 3”. Further, the “footprint on MS1 sequence” value in test [4] is given as “binding to only one site on the MS1 sequence”. Besides, the “effect on LPS-stimulated NFκB-DNA binding activity” value in test [5] was “appeared to inhibit”.
